In PubChem BioAssay AID602308 (Southern Research Specialized Biocontainment Screening …, 2012):
The source made the active and inactive calls. No rule for the calls is given here.

Biological target: Flavivirus NS5 methyltransferase / guanylyltransferase (capping enzyme)
Assay: flavivirus capping enzyme inhibitors, confirmation, biochemical (AID 602308)
Conditions: Flavivirus NS5 capping enzyme biochemical inhibition assay; for inhibition: at 100 µM (top of the series)

| IC50 | inhibition | SMILES |
| --- | --- | --- |
| 14.8 µM | – | O=[N+]([O-])c1cccc(S(=O)(=O)Nc2cc(SCc3ccccc3)c(O)c3ccccc23)c1 |
| 43.3 µM | – | O=S(=O)(Nc1cc(SCc2ccccc2)c(O)c2ccccc12)c1ccc(Cl)cc1 |
| 5.66 µM | – | Cc1cc(F)ccc1S(=O)(=O)Nc1cc(SCC(=O)O)c(O)c2ccccc12 |
| 4.96 µM | – | O=C(O)CSc1cc(NS(=O)(=O)c2ccc(Br)cc2)c2ccccc2c1O |
| 3.83 µM | – | O=C(O)CSc1cc(NS(=O)(=O)c2cccc([N+](=O)[O-])c2)c2ccccc2c1O |
| 5.45 µM | – | O=C(O)CSc1cc(NS(=O)(=O)c2ccc(Cl)cc2)c2ccccc2c1O |
| 7.32 µM | – | O=C(O)CSc1cc(NS(=O)(=O)c2ccc(F)cc2)c2ccccc2c1O |
| 34.3 µM | – | O=[N+]([O-])c1cccc(S(=O)(=O)Nc2cc(Sc3nc4ccccc4s3)c(O)c3ccccc23)c1 |
| 6.24 µM | – | Cc1ccc(S(=O)(=O)Nc2cc(SCC(=O)O)c(O)c3ccccc23)cc1 |
| 6.62 µM | – | O=C(O)CSc1cc(NS(=O)(=O)c2cccc3cccnc23)c2ccccc2c1O |
| 10.2 µM | – | O=S(=O)(Nc1cc(Sc2ncn[nH]2)c(O)c2ccccc12)c1ccc(F)cc1 |
| 35.6 µM | – | O=S(=O)(Nc1cc(Sc2ccccc2)c(O)c2ccccc12)c1ccc(F)cc1 |

The remaining lines, values behind:

| SMILES | IC50 | inhibition |
| --- | --- | --- |
| Cn1c(=O)c2[nH]c(-c3ccc(Cl)cc3)c(O)c2n(C)c1=O | 57.8 µM | – |
| Clc1ccc2nc(-c3cccs3)cn2c1 | – | inactive |
| CN(C)C(=O)c1ccc2nc(-c3ccccc3)cn2c1 | – | inactive |
| Cc1ccc(S(=O)(=O)Nc2cc(Sc3nc(C)cc(C)n3)c(O)c3ccccc23)cc1 | 83.8 µM | – |
| Cn1c(=O)c2cnc(-c3ccccc3)nc2n(C)c1=O | – | inactive |
| O=S(=O)(Nc1cc(Cl)c(O)c2ccccc12)c1ccc(F)cc1 | 17.8 µM | – |
| Clc1ccc2nc(-c3ccccc3)cn2c1 | – | inactive |
| Cc1nc2nc(-c3ccc(Cl)cc3)cn2nc1C | – | inactive |
| Cn1c(=O)c2[nH]c(-c3ccccc3)c(O)c2n(C)c1=O | 28.1 µM | – |
| Cn1c(=O)c2[nH]c(-c3cccc4ccccc34)c(O)c2n(C)c1=O | – | inactive |
| Cc1nc2nc(-c3ccccc3)cn2nc1C | – | inactive |
| Cc1cc(C)c(S(=O)(=O)Nc2cc(SCC(=O)O)c(O)c3ccccc23)c(C)c1 | 6.95 µM | – |
| Cc1nc2nc(-c3ccc(F)cc3)cn2nc1C | – | inactive |
| Cn1c(=O)c2[nH]c(-c3ccccc3)nc2n(C)c1=O | – | inactive |
| Cc1ccn2cc(-c3ccccc3)nc2c1 | – | inactive |
| Cc1ccc2nc(-c3ccccc3)cn2c1 | – | inactive |
| COc1ccc(OC)c(S(=O)(=O)Nc2cc(SCC(=O)O)c(O)c3ccccc23)c1 | 9.09 µM | – |
| Cc1ccc(-c2cn3nc(C)c(C)nc3n2)cc1 | – | inactive |
